Measurements taken from patent US20160045513A1, “ISOXAZOLE COMPOUND FOR THE TREATMENT OF CANCER” (Novartis AG, priority 2007, published 2016).

How the values were obtained:
Type in all cases: cell-based
MEXF 462 = test: clonogenic assay, human tumor xenografts in vitro; settings: Melanoma, MEXF 462, Amelanotic melanoma, soft agar, read-out: IC50 (nM), colony formation
Protocol: The anticancer activity of 5-(2,4-Dihydroxy-5-isopropyl-phenyl)-4-(4-morpholin-4-ylmethyl-phenyl)-isoxazole-3-carboxylic acid ethylamide is evaluated in 30 human tumor xenografts in vitro using a clonogenic assay. In this assay, human cells derived from cancer patients are evaluated for the capacity of 5-(2,4-Dihydroxy-5-isopropyl-phenyl)-4-(4-morpholin-4-ylmethyl-phenyl)-isoxazole-3-carboxylic acid ethylamide to inhibit the formation of 3 dimensional colonies. […] The tumor xenografts which have never been cultured in cell culture plastic dishes are isolated from nude mice. Tumor cell suspensions are prepared and incubated in 24 well plates containing layers of soft agar. Under these conditions a special subpopulation of cells selectively grows to colonies. 5-(2,4-Dihydroxy-5-isopropyl-phenyl)-4-(4-morpholin-4-ylmethyl-phenyl)-isoxazole-3-carboxylic acid ethylamide was tested in 6 concentrations up to […]. The tumor test panel comprises 1 to 6 models of 10 different human tumor or cancer types, which were bladder cancer, colon, liver, non small cell lung (adeno, squamous epithelium and large cell), small cell lung, mammary, ovary, pancreatic, melanoma and pleuramesothelioma. Antitumor effects are recorded as inhibition of colony formation in relation to untreated controls. Further information on the method has been published (Burger et al., 2004; Fiebig et al., 2004; Smith et al., 2005).
The cells are continually exposed to 5-(2,4-Dihydroxy-5-isopropyl-phenyl)-4-(4-morpholin-4-ylmethyl-phenyl)-isoxazole-3-carboxylic acid ethylamide and colony formation is determined.

41M = test: cell proliferation, tumor derived cell lines; settings: Homo sapiens, Ovarian, 72 or 96 hours exposure
Protocol: (§1) Thirty-seven cancer derived cell lines are used (BT474, MDA-MB-361, MDA-MB-453, SKBr3, T47D, MCF7, MDA-MB-231, MDA-MB-468, SK-MEL-5, A375, MALME-3M, SK-MEL-28, WM266.4, RPMI8226, U266, BE, Colo205, HCT116, HT29, MAWI, RKO, U87MG, HN5, RPMI-8226, A549, MV522, NCI-H1299, NCI-H460, 41M, A2780, CHI, NCI-N87, SKOV3, PC3, MO7e, GIST882 and Baf3) to test the effect of 5-(2,4-Dihydroxy-5-isopropyl-phenyl)-4-(4-morpholin-4-ylmethyl-phenyl)-isoxazole-3-carboxylic acid ethylamide. Cell lines are commercially available from American Type Culture Collection (ATCC). These cell lines cover the following 12 cancer or tumor types: breast, melanoma, multiple myeloma (MM), colon, glioblastoma, head & neck, leukemia, lung, ovarian, prostate, stomach and gastrointestinal stromal tumour (GIST). After division and medium change, cells from stock culture are seeded on cell plates and cultured for about 18 hours to allow cell growth and attachment before starting the assay. On the first day of the assay, 5-(2,4-Dihydroxy-5-isopropyl-phenyl)-4-(4-morpholin-4-ylmethyl-phenyl)-isoxazole-3-carboxylic acid ethylamide is added to the medium at various concentrations up to […]. Cells are cultured up to 72 or 96 hours and cell proliferation is determined using commercially available cell proliferation kits.
(§2) The cells were continually exposed to 5-(2,4-Dihydroxy-5-isopropyl-phenyl)-4-(4-morpholin-4-ylmethyl-phenyl)-isoxazole-3-carboxylic acid ethylamide for either 72 or 96 hours and cell growth was determined by commercially available kits based on either SRB, Alamar blue, methylene blue or WST-1 methods.

SKOV3 = test: cell proliferation, tumor derived cell lines; settings: Homo sapiens, SK-OV-3, Ovarian, 72 or 96 hours exposure
Protocol: as §1, §2

MDA-MB-231 = test: cell proliferation, tumor derived cell lines; settings: Homo sapiens, Breast, 72 or 96 hours exposure
Protocol: as §1, §2

GIST882 = test: cell proliferation, tumor derived cell lines; settings: Homo sapiens, Gastrointestinal stromal tumour (GIST), 72 or 96 hours exposure
Protocol: as §1, §2

U266 = test: cell proliferation, tumor derived cell lines; settings: Homo sapiens, U-266, Multiple myeloma (MM), 72 or 96 hours exposure
Protocol: as §1, §2

RKO = test: cell proliferation, tumor derived cell lines; settings: Homo sapiens, Colon, 72 or 96 hours exposure
Protocol: as §1, §2

MV522 = test: cell proliferation, tumor derived cell lines; settings: Lung, 72 or 96 hours exposure
Protocol: as §1, §2

Colo205 = test: cell proliferation, tumor derived cell lines; settings: Homo sapiens, COLO 205, Colon, 72 or 96 hours exposure
Protocol: as §1, §2

A549 = test: cell proliferation, tumor derived cell lines; settings: Homo sapiens, Lung, 72 or 96 hours exposure
Protocol: as §1, §2

PC3 = test: cell proliferation, tumor derived cell lines; settings: Homo sapiens, PC-3, Prostate, 72 or 96 hours exposure
Protocol: as §1, §2

A2780 = test: cell proliferation, tumor derived cell lines; settings: Homo sapiens, Ovarian, 72 or 96 hours exposure
Protocol: as §1, §2

RPMI8226 = test: cell proliferation, tumor derived cell lines; settings: Homo sapiens, RPMI-8226, Multiple myeloma (MM), 72 or 96 hours exposure
Protocol: as §1, §2

HCT116 = test: cell proliferation, tumor derived cell lines; settings: Homo sapiens, HCT-116, Colon, 72 or 96 hours exposure
Protocol: as §1, §2

MAWI = test: cell proliferation, tumor derived cell lines; settings: Colon, 72 or 96 hours exposure
Protocol: as §1, §2

U87MG = test: cell proliferation, tumor derived cell lines; settings: Homo sapiens, U-87 MG, Glioblastoma, 72 or 96 hours exposure
Protocol: as §1, §2

SK-MEL-28 = test: cell proliferation, tumor derived cell lines; settings: Homo sapiens, Melanoma, 72 or 96 hours exposure
Protocol: as §1, §2

CH1 = test: cell proliferation, tumor derived cell lines; settings: Homo sapiens, Ovarian, 72 or 96 hours exposure
Protocol: as §1, §2

Baf3 = test: cell proliferation, tumor derived cell lines; settings: Mus musculus, Gastrointestinal stromal tumour (GIST), 72 or 96 hours exposure
Protocol: as §1, §2

NCI-N87 = test: cell proliferation, tumor derived cell lines; settings: Homo sapiens, Stomach, 72 or 96 hours exposure
Protocol: as §1, §2

MCF7 = test: cell proliferation, tumor derived cell lines; settings: Homo sapiens, Breast, 72 or 96 hours exposure
Protocol: as §1, §2

MDA-MB-468 = test: cell proliferation, tumor derived cell lines; settings: Homo sapiens, Breast, 72 or 96 hours exposure
Protocol: as §1, §2

`CCNC(=O)c1noc(-c2cc(C(C)C)c(O)cc2O)c1-c1ccc(CN2CCOCC2)cc1` [AUY922, 5-(2,4-Dihydroxy-5-isopropyl-phenyl)-4-(4-morpholin-4-ylmethyl-phenyl)-isoxazole-3-carboxylic acid ethylamide] was tested, and the IC50 (MEXF 462) was 24 nM, the IC50 (41M) was 3 nM and the IC50 (SKOV3) was 3.7 nM. The IC50 (MDA-MB-231) was 7.7 nM, the IC50 (GIST882) was 6.2 nM and the IC50 (U266) was 23.3 nM. The IC50 (RKO) was 3.1 nM, the IC50 (MV522) was 8.1 nM and the IC50 (Colo205) was 6.2 nM. The IC50 (A549) was 11.7 nM, the IC50 (PC3) was 5 nM and the IC50 (A2780) was 6.1 nM. It also gave an IC50 (RPMI8226) of 36.7 nM, an IC50 (HCT116) of 16 nM and an IC50 (MAWI) of 50 nM. For the same compound, the IC50 (U87MG) was 6 nM, the IC50 (SK-MEL-28) was 8 nM and the IC50 (CH1) was 2.8 nM. For the same compound, the IC50 (Baf3) was 22.4 nM, the IC50 (NCI-N87) was 0.2 nM and the IC50 (MCF7) was 2.3 nM. For the same compound, the IC50 (MDA-MB-468) was 3.5 nM.
